The source of these data is patent US20190070396A1 (priority 2017, published 2019).

For data set [1] the following is noted: Beagle, dog, in vivo.
The conditions of data set [2]: dog, in vivo, 0.8 mg.
The nature of the next data set: in vivo. To be noted: dog.

Like-named read-outs stand apart in the source and are kept apart here.

With `CNC[C@H](O)c1ccc(O)c(O)c1` [epinephrine], in data set [1], the “buccal increase over basal level as share of the increase demonstrated by benchmark intramuscular injection” value is “approximately 20%”.

For the compound `C=CCN1CC[C@]23c4c5ccc(O)c4O[C@H]2C(=O)CC[C@@]3(O)[C@H]1C5` [naloxone], the Tmax in data set [2] is 15 min; in “in vivo” (8 mg), 18 min; in “in vivo” (im, 0.4 mg) it was 22 min. Besides, the area under the curve (AUC) in the data set “in vivo” (0.8 mg) was 8.33 ng·h/mL; in the data set “in vivo” (8 mg), 58.3 ng·h/mL; in the data set “in vivo” (im, 0.4 mg) it was 10 ng·h/mL. In addition, the maximum concentration (Cmax) is 25 ng/mL in the data set “in vivo” (0.8 mg); 52 ng/mL in the data set “in vivo” (8 mg); 9 ng/mL in the data set “in vivo” (im, 0.4 mg).

As a reminder, the Tmax is the time from dosing to the highest level. The AUC is the area under the concentration-time curve, a measure of exposure. For orientation: Cmax means the highest concentration seen after dosing.
